Laboratory results reported in patent US8835634B2, “Quinoxalinone derivatives as insulin secretion stimulators, methods for obtaining them and use thereof for the treatment of diabetes” (Merck Patent GmbH, priority 2008, dated 2014).

Columns and labels:
[1] = system: INS-1 cells; assay: Insulin secretion assay in INS-1 cells (glucose at 4.2 mM); assay type: cell-based, rat; details: glucose 4.2 mM, 1 h incubation, control = glucose 4.2 mM; for Insulin secretion, % of ctrl at 10 μM of cpd: 10 μM compound; for Insulin secretion, % of ctrl at 50 μM of cpd: 50 μM compound
Description: Culture of Pancreatic INS-1 Cells
INS-1 cells were cultured in complete medium, RPMI1640 containing 1 mM sodium pyruvate, 50 μM 2-mercaptoethanol, 2 mM glutamine, 10 mM HEPES, 100 IU/mL penicillin, and 100 μg/mL streptomycin (CM), supplemented with 10 mM glucose, and 10% (vol/vol) heat-inactivated fetal calf serum (FCS), as described by Asfari et al. (Endocrinology 130: 167-178, 1992).
INS-1 cells were plated and cultured in 48-well plates. After 2 days of culture, the medium was removed and cells were cultured for 24 h with a medium change to 5 mM glucose, 1% FCS. The cells were then washed with Krebs-Ringer Bicarbonate HEPES buffer (KRBH; 135 mM NaCl; 3.6 mM KCl; 5 mM NaHCO3; 0.5 mM NaH2PO4; 0.5 mM MgCl2; 1.5 mM CaCl2 and 10 mM HEPES; pH 7.4) 0.1% BSA containing 2.8 mM glucose and preincubated for 30 min at 37° C. in the same buffer. The cells were then washed twice and incubated for 1 h in KRBH 0.1% BSA containing 4.2 mM glucose and different concentrations of the tested molecule. Insulin concentration in the collected supernatants was measured with ELISA using rat insulin antibody (Insulin Rat Elit PLUS, cat. ref 10-1145-01).
Insulin secretion results are expressed in % of control (glucose 4.2 mM).
Insulin Secretion in INS-1 Cells (Glucose at 4.2 mM)

[2] = system: diabetic N0STZ rat islets; assay: Insulin secretion in diabetic N0STZ rat islets; assay type: cell-based; details: 90 min, Means±SEM
Description: Insulin Secretion in Diabetic N0STZ Rat Islets. Materials and Methods. Islets Isolation and Treatments.
14±3 weeks non-fasted N0STZ (PORTHA et al., 1974) male rats (Charles Rivers-Domaine des Oncins, I'Arbresle, France) were anesthetised with sodium pentobarbital (Nembutal®: 45 mg/kg in 5 ml/kg administered intra peritoneally) and body temperature was maintained with a heat lamp.
Rat pancreatic islets of Langerhans were isolated from the pancreas of 8 rats by collagenase P (Boehringer, Meylan, France) digestion. Islets were purified by sedimentation in Hanks balanced salt solution [NaCl (137 mM); KCl (5.36 mM); MgSO4, 7 H2O (0.81 mM); Na2HPO4, 12 H2O (0.34 mM); KH2PO4 (0.44 mM); CaCl2, 2 H2O (1.26 mM); NaHCO3 (4.17 mM)] followed by Ficoll gradient separation. Islets were then hand-picked under stereoscopic microscope and batches of 3 islets were incubated for 90 minutes at 37° C. with continuous shaking under a humidified condition (95% O2, 5% CO2) in 1 ml of Krebs/Hepes pH 7 solution [NaCl (115 mM), NaHCO3 (24 mM), KCl (5 mM), MgCl2 (1 mM), CaCl2, 2 H2O (1 mM), 0.2% of Bovine serum albumin (Fraction V, fatty acid free, Boehringer, Mannheim), 10 mM Hepes] containing the required glucose or compound concentration. Compounds were dissolved in DMSO at 2.10-2M stock solutions. They were then diluted at the required concentration in Krebs/Hepes buffer containing the required glucose concentration.
At the end of incubation, media was collected and insulin levels were measured using ELISA (EUROBIO, Courtaboeuf, France).
Islets were hand-picked and incubated in the presence of increasing concentrations of compounds in the presence of glucose at 2.8 or 8 mM. At the end of incubation, media was collected and insulin levels were measured using ELISA method. Results are expressed as % of glucose control (2.8 or 8 mM) and represent Means±SEM.

[3] = glucose 2.8 mM, compound 10−4 M

Row | Structure (SMILES) | Insulin secretion, % of ctrl at 10 μM of cpd [1] | Insulin secretion, % of ctrl at 50 μM of cpd [1] | melting point | other results
1 | CCn1c(=O)c(-c2ccc(C(F)(F)F)cc2)nc2ccccc21 [Example 6-7, 1-ethyl-3-(4-trifluoromethylphenyl)quinoxalin-2(1H)-one] | 221 % of ctrl | 466 % of ctrl | – | –
2 | CCCCn1c(=O)c(-c2ccccc2)nc2ccccc21 [Example 3-16, 1-butyl-3-phenyl-quinoxalin-2(1H)-one] | – | – | 40 to 43 °C | –
3 | CCn1c(=O)c(-c2ccc(F)cc2C)nc2ccccc21 [Example 6-5, 1-ethyl-3-(4-fluoro-2-methylphenyl)quinoxalin-2(1H)-one] | 287 % of ctrl | 325 % of ctrl | – | –
4 | CCn1c(=O)c(-c2ccc(Cl)cc2)nc2ccccc21 [Example 6, 3(4-chlorophenyl)-1-ethyl-quinoxalin-2(1H)-one] | 325 % of ctrl | 495 % of ctrl | 138 to 140 °C | Insulin secretion, % of glucose control [2, 3]: 94 ± 17 % of glucose control; Insulin secretion, % of glucose control ([2]; glucose 8 mM, compound 10−4 M): 413 ± 7 % of glucose control; Insulin secretion, % of glucose control ([2]; glucose 8 mM, compound 10−5 M): 226 ± 12 % of glucose control; Insulin secretion, % of glucose control ([2]; glucose 8 mM, compound 10−6 M): 124 ± 8 % of glucose control; Insulin secretion, % of glucose control ([2]; glucose 8 mM, compound 10−7 M): 126 ± 9 % of glucose control
5 | O=c1c(-c2ccc(Cl)cc2)nc2ccccc2n1C1CC1 [Example 3-3, 3-(4-chlorophenyl)-1-cyclopropyl-quinoxalin-2(1H)-one] | – | – | 102 to 105 °C | –
6 | O=c1c(-c2ccc(F)cc2)nc2ccccc2n1C1CC1 [Example 3-14, 1-cyclopropyl-3-(4-fluorophenyl)quinoxalin-2(1H)-one] | – | – | 179 to 182 °C | –
7 | O=c1c(-c2ccc(Cl)cc2)nc2ccccc2n1CC(F)F [Example 3-2, 3-(4-chlorophenyl)-1-(2,2-difluoroethyl)quinoxalin-2(1H)-one] | 540 % of ctrl | 666 % of ctrl | 133 to 136 °C | –
8 | CCn1c(=O)c(-c2ccc(F)cc2)nc2ccccc21 [Example 6-3, 1-ethyl-3-(4-fluorophenyl)quinoxalin-2(1H)-one] | 316 % of ctrl | 423 % of ctrl | 110 to 115 °C | Insulin secretion, % of glucose control [2, 3]: 114 ± 17 % of glucose control; Insulin secretion, % of glucose control ([2]; glucose 8 mM, compound 10−4 M): 440 ± 8 % of glucose control; Insulin secretion, % of glucose control ([2]; glucose 8 mM, compound 10−5 M): 168 ± 9 % of glucose control; Insulin secretion, % of glucose control ([2]; glucose 8 mM, compound 10−6 M): 135 ± 11 % of glucose control; Insulin secretion, % of glucose control ([2]; glucose 8 mM, compound 10−7 M): 133 ± 8 % of glucose control
9 | O=c1c(-c2ccccc2)nc2ccccc2n1C1CC1 [Example 3-11, 1-cyclopropyl-3-phenylquinoxalin-2(1H)-one] | 371 % of ctrl | 468 % of ctrl | 102 to 105 °C | –
10 | CCn1c(=O)c(-c2ccc(F)cc2)nc2cc(F)c(F)cc21 [Example 3-9, 1-ethyl-6,7-difluoro-3-(4-fluorophenyl)quinoxalin-2(1H)-one] | – | – | 116 to 118 °C | –
11 | O=c1c(-c2ccc(F)cc2)nc2ccccc2n1CC(F)F [Example 3-34, 1-(2,2-difluoroethyl)-3-(4-fluorophenyl)quinoxalin-2(1H)-one] | – | – | 151 to 154 °C | –
12 | CCn1c(=O)c(-c2ccc(C)cc2)nc2ccccc21 [Example 6-4, 1-ethyl-3-(4-methylphenyl)quinoxalin-2(1H)-one] | 305 % of ctrl | 391 % of ctrl | – | –
13 | CCCCn1c(=O)c(CC)nc2ccccc21 [Example 3-29, 1-butyl-3-ethylquinoxalin-2(1H)-one] | – | – | 48 to 51 °C | –
14 | CCc1nc2ccccc2n(C2CC2)c1=O [Example 3-33, 1-cyclopropyl-3-ethylquinoxalin-2(1H)-one] | – | – | 77 to 80 °C | –
15 | O=c1c(-c2ccccc2)nc2ccccc2n1CC(F)F [Example 3, 1-(2,2-difluoroethyl)-3-phenyl-quinoxalin-2(1H)-one] | – | – | 85 to 88 °C | –
16 | CCn1c(=O)c(-c2ccc(Cl)cc2)nc2cc(F)c(F)cc21 [Example 3-10, 1-ethyl-6,7-difluoro-3-(4-chlorophenyl)quinoxalin-2(1H)-one] | – | – | 135 to 137 °C | –
17 | CCCc1nc2ccccc2n(C2CC2)c1=O [Example 3-32, 1-cyclopropyl-3-propylquinoxalin-2(1H)-one] | – | – | 72 to 75 °C | –
18 | CCc1nc2cc(F)c(F)cc2n(CC)c1=O [Example 3-24, 1,3-diethyl-6,7-difluoro-quinoxalin-2(1H)-one] | – | – | 117 to 119 °C | –
